Laboratory results: patent publication US11707442B2, “Antibacterial and antifungal compounds” (The General Hospital Corporation, priority 2015, dated 2023)
In brackets after ≈: the same amount, converted by molar mass. Where two headings read alike, the source gives them in different places.

Key:
MRSA strain MW2 = experiment: Checkerboard assay (combination); format: cell-based, Staphylococcus aureus; settings: for interaction with gentamicin: MRSA MW2, result in words; for Fractional inhibitory concentration index (FICI): MRSA strain MW2, synergy FICI ≤ 0.5
Method: Checkerboard assay (e.g., antibiotic synergy test): The antimicrobial or antifungal activity of a combination of a compound of present application with other agents was determined through a checkerboard assay. The checkerboard method for determining synergy of synthetic retinoids with conventional antibiotics can be conducted, for example, as previously described (See, e.g., Rajamuthiah, R. et al. A defensin from the model beetle Tribolium castaneum acts synergistically with telavancin and daptomycin against multidrug resistant Staphylococcus aureus. PLoS ONE 10, e0128576 (2015)) The compounds whose combinations were being tested were arrayed in serial concentrations, vertically for one compound and horizontally for the other compound in the same 96 well microplate. 2-fold serial dilutions of each retinoid were combined with 2-fold serial dilutions of each conventional antibiotic, which created an 8×8 matrix in a 96-well microtiter plate. The rest of the procedure involving addition of pathogen and measurement of growth was carried out as described for measurement of MIC.
The Fractional Inhibitory Concentration (FIC) index for two compounds, A and B, is defined by the following equation: FIC=((A/MIC^A)+(B/MIC^B)). MIC^A and NIC^B are MICs of compound A or B respectively. (A) is the lowest concentration of compound A in combination with compound B that inhibits growth of a pathogen and (B) is the lowest concentration of compound B that inhibits growth of a pathogen.
Optical densities at 600 nm were measured after 18 h of incubation at 37° C. The results represent three independent experiments.

A. baumannii = experiment: MIC, broth microdilution; format: cell-based, Acinetobacter baumannii; settings: Acinetobacter baumannii, ATCC17978; A. baumannii ATCC 17978; read-out: Minimum inhibitory concentration
Procedure, shortened: (§1)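 MIC by CLSI broth microdilution (M07-A8) in MH broth; E. aerogenes, K. pneumoniae and A. baumannii pre-grown in LB, E. faecium in BHI, at 37° C. Inoculum at initial OD600 0.03, incubated 18 hrs at 35° C., growth read as absorbance at 595 nm.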

[1] = test system: S. aureus persister cells (stationary phase); experiment: Persister killing assay; format: cell-based, Staphylococcus aureus; settings: for eradication of persisters formed by S. aureus strain VRS1 and 11 clinical S. aureus strains: 10×MIC, 4 h
Method: Persister killing assay. […] Persister cells of these 13 S. aureus strains were developed by growing cultures overnight to stationary phase at 37° C. at 225 rpm. The overnight cultures were washed three times with PBS and diluted to ˜10^7 CFU/ml with the same buffer, which is the same concentration as used in the killing kinetics assay described herein. 1 ml of the persister suspension containing appropriate concentrations of antibiotics was added to the wells of a 2 ml deep well assay block (Corning Costar 3960) and incubated at 37° C., with shaking at 225 rpm. At specific times, 50 μl samples were removed, serially diluted and spot-plated on TSA plates to enumerate the number of live cells. These experiments were conducted in triplicate.

K. pneumonia WGLW2 = experiment: MIC, broth microdilution; format: cell-based, Klebsiella pneumoniae; settings: Klebsiella pneumoniae; K. pneumonia WGLW2; read-out: Minimum inhibitory concentration
Procedure, shortened: as §1

S. aureus = experiment: Minimal inhibitory concentration (MIC), broth microdilution; format: cell-based, Staphylococcus aureus
Procedure, shortened: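 MIC values against methicillin-resistant Staphylococcus aureus were determined by standard broth microdilution following Clinical and Laboratory Standards Institute guidance (CLSI document M07-A8). Each well held 100 μl of test compound plus bacterial cells in MH broth, with the starting OD600 set to 0.03. Plates were incubated 18 hrs at 35° C. and absorbance was then read at 595 nm.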

[2] = in combination with Ciprofloxacin
[3] = Staphylococcus aureus, S. aureus BF1, read-out: Minimum inhibitory concentration
[4] = Staphylococcus aureus, S. aureus BF2, read-out: Minimum inhibitory concentration
[5] = Staphylococcus aureus, S. aureus BF3, read-out: Minimum inhibitory concentration
[6] = Staphylococcus aureus, S. aureus BF4, read-out: Minimum inhibitory concentration
[7] = Staphylococcus aureus, S. aureus BF5, read-out: Minimum inhibitory concentration
[8] = Staphylococcus aureus, S. aureus BF6, read-out: Minimum inhibitory concentration
[9] = Staphylococcus aureus, S. aureus BF7, read-out: Minimum inhibitory concentration
[10] = Staphylococcus aureus, S. aureus BF8, read-out: Minimum inhibitory concentration
[11] = Staphylococcus aureus, S. aureus BF9, read-out: Minimum inhibitory concentration
[12] = Staphylococcus aureus, S. aureus BF10, read-out: Minimum inhibitory concentration
[13] = Staphylococcus aureus, S. aureus BF11, read-out: Minimum inhibitory concentration
[14] = Staphylococcus aureus, S. aureus JE2 (wild-type), read-out: MIC
[15] = Staphylococcus aureus, S. aureus MW2, read-out: Minimum inhibitory concentration
[16] = Staphylococcus aureus, S. aureus MW2 mutant SP1-8 (graS)
[17] = Staphylococcus aureus, S. aureus MW2 mutant SP1-48 (graS, manA)
[18] = Staphylococcus aureus, S. aureus MW2 mutant SP1-74 (graS, manA, MW2474)
[19] = Staphylococcus aureus, S. aureus MW2 mutant SP1-100 (graS, manA, MW2474)
[20] = Staphylococcus aureus, S. aureus MW2 mutant SP2-13 (yjbH)
[21] = Staphylococcus aureus, S. aureus MW2 mutant SP2-52 (yjbH, dltB)
[22] = Staphylococcus aureus, S. aureus MW2 mutant SP2-59 (yjbH, dltB, manA)
[23] = Staphylococcus aureus, S. aureus MW2 mutant SP2-65 (yjbH, dltB, manA, MW1685)
[24] = Staphylococcus aureus, S. aureus MW2 mutant SP2-100 (yjbH dltB, manA, MW1685)
[25] = Staphylococcus aureus, S. aureus MW2 serial passage culture SP1-1 (no mutated gene)
[26] = Staphylococcus aureus, S. aureus MW2 serial passage culture SP2-1 (no mutated gene)
[27] = Staphylococcus aureus, S. aureus NE896 (JE2 yjbH::ϕNΣ)
[28] = Staphylococcus aureus, S. aureus NE1645 (JE2 manA::ϕNΣ)
[29] = Staphylococcus aureus, S. aureus NE1756 (JE2 graS::ϕNΣ)
[30] = Staphylococcus aureus, S. aureus VRS1, read-out: Minimum inhibitory concentration
[31] = Staphylococcus aureus, methicillin resistant S. aureus (MRSA) strain MW2, read-out: MIC

`O=C(O)c1ccc(-c2ccc3cc(O)c(C45CC6CC(CC(C6)C4)C5)cc3c2)cc1` [CD1530, 4-(6-hydroxy-7-tricyclo[3.3.1.13,7]dec-1-yl-2-naphthalenyl)-benzoic acid] was tested, and the interaction with gentamicin (MRSA strain MW2) was “significant synergistic antimicrobial activity”, the “Fractional inhibitory concentration index (FICI)” value (MRSA strain MW2; [2]) was 0.75 and the “Fractional inhibitory concentration index (FICI)” value (MRSA strain MW2; in combination with Defensin 1) was 1. The “Fractional inhibitory concentration index (FICI)” value (MRSA strain MW2; in combination with Gentamicin) was 0.5, the “Fractional inhibitory concentration index (FICI)” value (MRSA strain MW2; in combination with Rifampicin) was 0.75 and the “Fractional inhibitory concentration index (FICI)” value (MRSA strain MW2; in combination with Vancomycin) was 1. For the same compound, the MIC (A. baumannii) was > 64 µg/mL, the “viability of MW2 persister cells, single agent” value ([1]; 4 μg/ml CD437 or CD1530 or 10 μg/ml gentamicin alone) was “did not significantly affect” and the “time to complete eradication of MW2 persisters, combination” value ([1]; 4 μg/ml retinoid plus 10 μg/ml gentamicin) was ≤ 4 h. The “eradication of persisters formed by S. aureus strain VRS1 and 11 clinical S. aureus strains” value ([1]; result in words) was “annihilated”, the “bactericidal concentration against MRSA persisters” value ([1]; MRSA MW2 persisters) was 8 µg/mL and the MIC (K. pneumonia WGLW2) was > 64 µg/mL. The MIC (S. aureus; Staphylococcus aureus, MRSA, 28 clinical MRSA isolates, 28/28 isolates, read-out: MIC) was ≤ 2 µg/mL, the MIC (S. aureus; [3]) was 2 µg/mL (≈ 5.02 µM) and the MIC (S. aureus; [4]) was 1 µg/mL (≈ 2.51 µM). It also gave an MIC (S. aureus; [5]) of 1 µg/mL (≈ 2.51 µM), an MIC (S. aureus; [6]) of 1 µg/mL (≈ 2.51 µM) and an MIC (S. aureus; [7]) of 1 µg/mL (≈ 2.51 µM). It also gave an MIC (S. aureus; [8]) of 1 µg/mL (≈ 2.51 µM), an MIC (S. aureus; [9]) of 1 µg/mL (≈ 2.51 µM) and an MIC (S. aureus; [10]) of 1 µg/mL (≈ 2.51 µM). It also gave an MIC (S. aureus; [11]) of 2 µg/mL (≈ 5.02 µM), an MIC (S. aureus; [12]) of 1 µg/mL (≈ 2.51 µM) and an MIC (S. aureus; [13]) of 1 µg/mL (≈ 2.51 µM). The MIC (S. aureus; [14]) was 1.5 µg/mL (≈ 3.76 µM), the MIC (S. aureus; [15]) was 1 µg/mL (≈ 2.51 µM) and the MIC (S. aureus; [16]) was 1.5 µg/mL (≈ 3.76 µM). It also gave an MIC (S. aureus; [17]) of 2 µg/mL (≈ 5.02 µM), an MIC (S. aureus; [18]) of 2 µg/mL (≈ 5.02 µM) and an MIC (S. aureus; [19]) of 2 µg/mL (≈ 5.02 µM). For the same compound, the MIC (S. aureus; [20]) was 1.5 µg/mL (≈ 3.76 µM), the MIC (S. aureus; [21]) was 1.5 µg/mL (≈ 3.76 µM) and the MIC (S. aureus; [22]) was 2 µg/mL (≈ 5.02 µM). It also gave an MIC (S. aureus; [23]) of 2 µg/mL (≈ 5.02 µM), an MIC (S. aureus; [24]) of 2 µg/mL (≈ 5.02 µM) and an MIC (S. aureus; [25]) of 1 µg/mL (≈ 2.51 µM). It also gave an MIC (S. aureus; [26]) of 1 µg/mL (≈ 2.51 µM), an MIC (S. aureus; [27]) of 2 µg/mL (≈ 5.02 µM) and an MIC (S. aureus; [28]) of 3 µg/mL (≈ 7.53 µM). It also gave an MIC (S. aureus; [29]) of 2 µg/mL (≈ 5.02 µM), an MIC (S. aureus; [30]) of 1 µg/mL (≈ 2.51 µM) and an MIC (S. aureus; [31]) of 1 µg/mL (≈ 2.51 µM).

For `O=C(O)/C=C/c1ccc(-c2ccc(O)c(C34CC5CC(CC(C5)C3)C4)c2)cc1` [Adarotene, (2E)-3-(4′-Hydroxy-3′-tricyclo[3.3.1.13,7]dec-1-yl[1,1′-biphenyl]-4-yl)-2-propenoic acid], the interaction with gentamicin (MRSA strain MW2) was “significant synergistic antimicrobial activity”, the “Fractional inhibitory concentration index (FICI)” value (MRSA strain MW2; [2]) was 0.75 and the “Fractional inhibitory concentration index (FICI)” value (MRSA strain MW2; in combination with Defensin 1) was 1. For the same compound, the “Fractional inhibitory concentration index (FICI)” value (MRSA strain MW2; in combination with Gentamicin) was 0.5, the “Fractional inhibitory concentration index (FICI)” value (MRSA strain MW2; in combination with Rifampicin) was 1 and the “Fractional inhibitory concentration index (FICI)” value (MRSA strain MW2; in combination with Vancomycin) was 1.016. For the same compound, the MIC (A. baumannii) was > 64 µg/mL, the “eradication of S. aureus strain MW2 persisters” value ([1]; 8×MIC, result in words) was “did not” and the “eradication of persisters formed by S. aureus strain VRS1 and 11 clinical S. aureus strains” value ([1]; result in words) was “not”. For the same compound, the MIC (K. pneumonia WGLW2) was > 64 µg/mL, the MIC (S. aureus; MRSA MW2, text b656, read-out: MIC) was 2 µg/mL (≈ 5.34 µM) and the MIC (S. aureus; Staphylococcus aureus, MRSA, 28 clinical MRSA isolates, 1 strain, read-out: MIC) was 4 µg/mL (≈ 10.7 µM). It also gave an MIC (S. aureus; [3]) of 4 µg/mL (≈ 10.7 µM), an MIC (S. aureus; [4]) of 2 µg/mL (≈ 5.34 µM) and an MIC (S. aureus; [5]) of 2 µg/mL (≈ 5.34 µM). For the same compound, the MIC (S. aureus; [6]) was 2 µg/mL (≈ 5.34 µM), the MIC (S. aureus; [7]) was 2 µg/mL (≈ 5.34 µM) and the MIC (S. aureus; [8]) was 2 µg/mL (≈ 5.34 µM). For the same compound, the MIC (S. aureus; [9]) was 2 µg/mL (≈ 5.34 µM), the MIC (S. aureus; [10]) was 2 µg/mL (≈ 5.34 µM) and the MIC (S. aureus; [11]) was 2 µg/mL (≈ 5.34 µM). For the same compound, the MIC (S. aureus; [12]) was 2 µg/mL (≈ 5.34 µM), the MIC (S. aureus; [13]) was 2 µg/mL (≈ 5.34 µM) and the MIC (S. aureus; [14]) was 2.5 µg/mL (≈ 6.68 µM). For the same compound, the MIC (S. aureus; [15]) was 2 µg/mL (≈ 5.34 µM), the MIC (S. aureus; [16]) was 3 µg/mL (≈ 8.01 µM) and the MIC (S. aureus; [17]) was 4 µg/mL (≈ 10.7 µM). It also gave an MIC (S. aureus; [18]) of 4 µg/mL (≈ 10.7 µM), an MIC (S. aureus; [19]) of 4 µg/mL (≈ 10.7 µM) and an MIC (S. aureus; [20]) of 3 µg/mL (≈ 8.01 µM). It also gave an MIC (S. aureus; [21]) of 3 µg/mL (≈ 8.01 µM), an MIC (S. aureus; [22]) of 4 µg/mL (≈ 10.7 µM) and an MIC (S. aureus; [23]) of 4 µg/mL (≈ 10.7 µM). The MIC (S. aureus; [24]) was 4 µg/mL (≈ 10.7 µM), the MIC (S. aureus; [25]) was 2 µg/mL (≈ 5.34 µM) and the MIC (S. aureus; [26]) was 2 µg/mL (≈ 5.34 µM). The MIC (S. aureus; [27]) was 4 µg/mL (≈ 10.7 µM), the MIC (S. aureus; [28]) was 4 µg/mL (≈ 10.7 µM) and the MIC (S. aureus; [29]) was 4 µg/mL (≈ 10.7 µM). It also gave an MIC (S. aureus; [30]) of 1 µg/mL (≈ 2.67 µM) and an MIC (S. aureus; [31]) of 2 µg/mL (≈ 5.34 µM).
